Assay results as given in patent US11628148B2, “Nail hardening composition and method of use” (WELLA OPERATIONS US, LLC, priority 2017, dated 2023).

Key:
[1] = Behaviour of the test solution at the highest concentration prepared; type: physicochemical; conditions: 3.5% (w/w) BMH in dimethyl sulfoxide
cow hoof samples = test: Three-point bend test (flexural strength) of cow hoof samples immersed 24 hours in test solution; conditions: for FS (flexural strength): 24 h immersion; for % Increase (flexural strength): only samples thinner than 1.8 mm
Method: 1. […] Pack samples in vacuum bag. 2. […] 3. […] Pack samples in vacuum bag. 4. Three-Point Bend Test for Untreated and Treated Cow Hoof Samples • Perform using a Texture Analyzer TAXT Plus from Texture Technologies. • Three point bend test is conducted until sample fracture. • Flexural strength is calculated based on force at break for each sample. Results A 3-point bend test set-up was used to measure the break force of treated and untreated cow hoof slices with thickness ranging from 0.88 mm to 2.75 mm. The flexural strength was calculated for each sample, based on sample thickness and width. For each group, the average flexural strength and the standard deviation were calculated. The p-value for the effect significance was calculated for each treated group versus the corresponding baseline value using ANOVA. Outliers were eliminated using the modified Thompson Tau method. Baseline values were determined for groups of untreated samples. Because the hypothesis is that the crosslinker reacts with thiol groups, the effect of dithiothreitol (DTT), a disulfide reducing agent, was tested as well.

Compound: O=C1C=CC(=O)N1CCCCCCN1C(=O)C=CC1=O [Bismaleimidohexane, bismaleimidohexane]
- Observation on the solution [1]: Gelification
- Observation on the solution ([1]; listed as BMH): gelification
- % increase (flexural strength vs baseline) (cow hoof samples; 1% BMH in dimethyl sulfoxide): 9.7%
- FS (flexural strength) (cow hoof samples; 1% by weight BMH in dimethyl sulfoxide): 158 N/mm2
- % increase (flexural strength vs baseline) (cow hoof samples; 3% BMH in dimethyl sulfoxide): 8.3%
- FS (flexural strength) (cow hoof samples; 3% by weight BMH in dimethyl sulfoxide): 156 N/mm2
- Effect on flexural strength (in words) (cow hoof samples; BMH at 1% and 3%): non-significant increase

Compound: NCCCCCCN [Hexamethylene diamine, hexamethylene diamine]
- FS (flexural strength) (cow hoof samples; 1% by weight hexamethylene diamine alone in ethanol (equal. to 3% H + M)): 132 N/mm2
- % increase (flexural strength vs baseline) (cow hoof samples; 1% hexamethylene diamine alone in ethanol (equal. to 3% H + M)): 3.9%
- FS (flexural strength) (cow hoof samples; 1.7% by weight hexamethylene diamine alone in ethanol (equal. to 5% H + M)): 149 N/mm2
- % increase (flexural strength vs baseline) (cow hoof samples; 1.7% hexamethylene diamine alone in ethanol (equal. to 5% H + M)): 17.3%
- FS (flexural strength) (cow hoof samples; 2.3% by weight hexamethylene diamine alone in ethanol (equal. to 7% H + M)): 122 N/mm2
- % increase (flexural strength vs baseline) (cow hoof samples; 2.3% hexamethylene diamine alone in ethanol (equal. to 7% H + M)): −3.9%
- Effect on flexural strength (in words) (cow hoof samples; HMD taken separately at 1.7%): borderline significant strengthening effect

Compound: O=C(O)/C=C\C(=O)O [Maleic Acid, maleic acid]
- FS (flexural strength) (cow hoof samples; 3.3% by weight maleic acid alone in ethanol (equ. to 5% H + M)): 131 N/mm2
- % increase (flexural strength vs baseline) (cow hoof samples; 3.3% maleic acid alone in ethanol (equ. to 5% H + M)): 3.1%
- Effect on flexural strength (in words) (cow hoof samples; MA taken separately): does not seem to have any significant effect

Compound: C=O [Formaldehyde, formaldehyde]
- FS (flexural strength) (cow hoof samples; 1% by weight formaldehyde in ethanol, all samples): 141 N/mm2
- % increase (flexural strength vs baseline) (cow hoof samples; 1% formaldehyde in ethanol, all samples): 20.5%
- % Increase (flexural strength) (cow hoof samples; 1% formaldehyde): 22.2%
- FS (flexural strength) (cow hoof samples; 3% by weight formaldehyde in ethanol, all samples): 132 N/mm2
- % increase (flexural strength vs baseline) (cow hoof samples; 3% formaldehyde in ethanol, all samples): 12.8%
- % Increase (flexural strength) (cow hoof samples; 3% formaldehyde): 15.4%
- FS (flexural strength) (cow hoof samples; 5% by weight formaldehyde in ethanol, all samples): 134 N/mm2
- % increase (flexural strength vs baseline) (cow hoof samples; 5% formaldehyde in ethanol, all samples): 14.5%
- % Increase (flexural strength) (cow hoof samples; 5% formaldehyde): 20.5%

Compound: O[C@H](CS)[C@H](O)CS (racemic) [DTT, dithiothreitol]
- Effect on flexural strength (in words) (cow hoof samples; disulfide reducing agent, results not shown): no significant effect

Compound: Hexamethylene diamine/Maleic acid [Hexamethylene diamine + Maleic acid]
- % increase (flexural strength vs baseline) (cow hoof samples; 1% HMD + MA in ethanol, all samples): 13.4%
- % Increase (flexural strength) (cow hoof samples; 1% HMD + MA): 20.2%
- FS (flexural strength) (cow hoof samples; 1% by weight HMD + MA (1:2) in ethanol, all samples): 144 N/mm2
- % increase (flexural strength vs baseline) (cow hoof samples; 3% HMD + MA in ethanol, all samples): 17.3%
- % Increase (flexural strength) (cow hoof samples; 3% HMD + MA): 24.2%
- FS (flexural strength) (cow hoof samples; 3% by weight HMD + MA (1:2) in ethanol, all samples): 149 N/mm2
- % increase (flexural strength vs baseline) (cow hoof samples; 5% HMD + MA in ethanol, all samples): 17.3%
- % Increase (flexural strength) (cow hoof samples; 5% HMD + MA): 28.2%
- FS (flexural strength) (cow hoof samples; 5% by weight HMD + MA (1:2) in ethanol, all samples): 149 N/mm2
- % increase (flexural strength vs baseline) (cow hoof samples; 7% HMD + MA in ethanol, all samples): 3.9%
- FS (flexural strength) (cow hoof samples; 7% by weight HMD + MA (1:2) in ethanol, all samples): 132 N/mm2
- Effect on flexural strength (in words) (cow hoof samples; HMD + MA (1:2 ratio) at 3% and 5% (w/w)): significant increase
